What was measured:
yeast strain, XD83 = assay: Phototoxicity test based on survival of yeast under simulated sunlight; type: cell-based; conditions: simulated sunlight 13 mW/cm^2
Procedure: The phototoxicity tests are based on the survival of a yeast strain, XD83. A single colony of yeast is inoculated into growth medium, and harvested during the exponential growth. The cells are suspended at a known concentration in a phosphate buffer, to afford a uniform population of cells. The cells are illuminated with simulated sunlight (13 mW/cm^2) in the absence or presence of test compounds with continous stirring. Samples are taken at increasing times (0, 10, 20, 30 minutes of illumination). The samples are analyzed semi-quantitatively, by applying two dilutions of the sample as small droplets (10 μl) to the surface of nutrient agar plates, and incubated at 37° C. for 48 hours. Patches of growth are found around the droplet. It can be easily seen when growth has been decreased. Sunscreen samples are introduces as 1000 μM concentration of the major UVB sunscreen active ingredient.

supercoiled plasmid DNA = conditions: positive controls at saturation concentrations; cited from earlier work

For `CCCCC(CC)COC(=O)c1ccc(N(C)C)cc1` (stereo not drawn) [Padimate-O, 2-Ethylhexyl N,N-Dimethyl-p-aminobenzoate], the “phototoxic effect on the growth of the yeast cell” value (yeast strain, XD83; positive controls) is given as “strong phototoxic effect”, the Phototoxicity (yeast strain, XD83; yeast XD83, 0-30 minutes illumination, 1000 μM of major UVB sunscreen active ingredient) is given as “Clearly toxic” and the “strand breaks on DNA when illuminated in vitro” value (supercoiled plasmid DNA) is given as “inflict strand breaks on DNA”.

From patent publication US6468509B2, “Sunscreen composition containing sol-gel microcapsules” (Sol-Gel Technologies Ltd., priority 1999, dated 2002)
